What was measured:
Jurkat [1] = test: Immunosuppressive activity in human Jurkat cells assessed as inhibition of concanavalin A-induced IL-2 production at 20 uM pretreated for 30 mins followed by concanavalin A stimulation after 12 hrs by immunoassay relative to control; assay type: functional
Jurkat [2] = test: Immunosuppressive activity in human Jurkat cells assessed as inhibition of concanavalin A-induced IL-2 production pretreated for 30 mins followed by concanavalin A stimulation after 12 hrs by immunoassay; assay type: functional, cell-based
Jurkat [3] = test: Cytotoxicity against concanavalin A-induced human Jurkat cells assessed as reduction in cell viability up to 20 uM pretreated for 30 mins followed by concanavalin A stimulation after 12 hrs by MTT assay; assay type: cell-based

SMILES	inhibition at 20 µM (Jurkat [1])	also measured
CCCCCCCCCCCCCCc1cc(O)c(Cl)c(O)c1	< 50%	
CCCCCC/C=C\CC/C=C\CCCc1cc(O)c(Cl)c(O)c1	< 50%	
CCCCCCCCCCCCCCCc1cc(O)c(Cl)c(O)c1	< 50%	
CCCCCC/C=C\CCCCCc1cc(O)c(Cl)c(O)c1	< 50%	
CCCCCC[C@H]1C[C@H]1CCCCCCCc1cc(O)c(Cl)c(O)c1	< 50%	
CCCCCC[C@H]1C[C@H]1CCCCCc1cc(O)c(Cl)c(O)c1	< 50%	
CCCCCC/C=C\CCCCCCCc1cc(O)c(Cl)c(O)c1	< 50%	
CCCCCCCCCCCCCc1cc(O)c(Cl)c(O)c1	< 50%	IC50 (Jurkat [2]): 16 µM; inhibition (Jurkat [2]): Dose-dependent effect; Activity (Jurkat [3]): Non-Toxic
